A value given as a limit tells only on which side of the number the result lay.

Broadly, the IC50 is the point on the concentration scale where inhibition reaches its midpoint. In general, AC50 refers to the midpoint of the concentration-response curve, whichever way the signal moves. Read a low AC50 as greater potency.

In experiment [1] the test system is MYB. Nature of the experiment: RT-qPCR splicing assay, MYB AJ/CJ mRNA. The experiment is classed as cell-based. As to conditions: Homo sapiens, A673 or K562 cells, 24 hours; for IC50: decrease in canonical junction mRNA; for AC50: increase in alternative junction mRNA. The gist of the method: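 Cells: A673 (DMEM/10% FBS) or K562 (IMDM/10% FBS). Dosing: 11-pt 3-fold, top 10 uM final, DMSO ≤0.25%, 24 h, 37° C. Readout: one-step RT-qPCR on lysate, CJ vs AJ isoforms; ΔCt vs housekeeper, ΔΔCt vs DMSO, 2^(−ΔΔCt) RQ → % response.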

A further experiment has as its system HTT. Briefly: Gene panel canonical junction qPCR assay, HTT CJ mRNA (Table 7). The format is cell-based, human. As to conditions: Homo sapiens, read-out: HTT CJ mRNA decrease IC50. The gist of the method: (§1)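 A673 or K562 cells were treated with compound; lysates went through cDNA synthesis and RT-qPCR, with a probe or primer spanning the canonical exon–exon junction. ΔCt vs housekeeper (GAPDH, GUSB or PPIA), normalized to DMSO (2^(−ΔΔCt)), converted to percentage response; IC50 from 4-parameter logistic fit of CJ decrease.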
In general terms: Quantitative PCR measures a nucleic acid by following its amplification.

Experiment [2] deals with MYB. Briefly: Gene panel canonical junction qPCR assay, MYB CJ mRNA (Table 7). The format is cell-based. As to conditions: Homo sapiens, read-out: MYB CJ mRNA decrease IC50. In a few lines: as §1
For the next experiment, the system named is Target C. Nature of the experiment: Gene panel canonical junction qPCR assay, Target C CJ mRNA (Table 7). The format is cell-based, human. The note with it: Homo sapiens, read-out: Target C CJ mRNA decrease IC50. The gist of the method:
as §1

With `COc1cc(-c2ccc3c(c2)COc2nc(N4CCC(NC5(C)CCC5)C4)ccc2-3)cnn1` (centres unmarked) [Compound 285, 1-[8-(6-methoxypyridazin-4-yl)-6H-isochromeno[3,4-b]pyridin-3-yl]-N-(1-methylcyclobutyl)pyrrolidin-3-amine], the IC50 in the experiment with MYB [1] is 0.1 to 1 µM; in the experiment with HTT, < 0.1 µM; in the experiment on MYB [2], 0.1 to 1 µM; in the experiment with Target C it was 0.1 to 1 µM. The AC50 with MYB [1] fell in the range of 0.1 to 1 µM.

For the compound `CC(C)Oc1cnnc(-c2ccc3c(c2)COc2nc(N4CCC(NC(C)(C)C)C4)ccc2-3)c1` (centres unmarked) [Compound 286], the IC50 in the experiment on MYB [1], in the experiment on HTT, with MYB [2] and in the experiment with Target C was > 10 µM in each case. In addition, in the experiment on MYB [1], the AC50 was > 10 µM.

With `COc1cc(-c2ccc3c(c2)COc2nc(N4CCN[C@@H](C)C4)ccc2-3)cnn1` [Compound 287], the IC50 with MYB [1] is 1 to 10 µM; in the experiment on HTT it was 0.1 to 1 µM; with MYB [2], 1 to 10 µM; with Target C it was 1 to 10 µM. Besides, the AC50 in the experiment with MYB [1] is 1 to 10 µM.

As for `COc1cc(-c2ccc3c(c2)COc2nc(O[C@@H]4C[C@H]5COC[C@@H](C4)N5)ccc2-3)cnn1` [Compound 290, (exo)-7-{[8-(6-methoxypyridazin-4-yl)-6H-isochromeno[3,4-b]pyridin-3-yl]oxy}-3-oxa-9-azabicyclo[3.3.1]nonane], the IC50 is 0.1 to 1 µM in the experiment with MYB [1], < 0.1 µM in the experiment on HTT, 0.1 to 1 µM with MYB [2] and 0.1 to 1 µM with Target C. Further, in the experiment with MYB [1], the AC50 lay within 0.1 to 1 µM.

Regarding `COc1cc(-c2ccc3c(c2)COc2nc(N4CCC(N5CCCC5)C4)ccc2-3)cnn1` (centres unmarked) [Compound 305], the IC50 in the experiment on MYB [1] lay within 1 to 10 µM; in the experiment on HTT, 0.1 to 1 µM; in the experiment with MYB [2], 1 to 10 µM; in the experiment with Target C, 1 to 10 µM. For the same compound, the AC50 with MYB [1] is 1 to 10 µM.

In the case of `COc1cc(-c2ccc3c(c2)COc2nc(N4CCC(N(C)C)C4)ccc2-3)cnn1` (centres unmarked) [Compound 306, 1-[8-(6-methoxypyridazin-4-yl)-6H-isochromeno[3,4-b]pyridin-3-yl]-N,N-dimethylpyrrolidin-3-amine], the IC50 in the experiment on MYB [1] lay within 1 to 10 µM; in the experiment with HTT, 0.1 to 1 µM; with MYB [2] it was 1 to 10 µM; with Target C, 1 to 10 µM. In the experiment on MYB [1], this compound came in with an AC50 of 1 to 10 µM.

Take `COc1cc(-c2ccc3c(c2)COc2nc(N4CCC(N(C)C5CCC5)C4)ccc2-3)cnn1` (centres unmarked) [Compound 307, N-cyclobutyl-1-[8-(6-methoxypyridazin-4-yl)-6H-isochromeno[3,4-b]pyridin-3-yl]-N-methylpyrrolidin-3-amine]: the IC50 was 1 to 10 µM in the experiment with MYB [1], 0.1 to 1 µM with HTT, 1 to 10 µM in the experiment on MYB [2] and 0.1 to 1 µM in the experiment with Target C. This compound also returned an AC50 with MYB [1] of 0.1 to 1 µM.

Values taken from US20240400584A1, “COMPOUNDS AND METHODS FOR MODULATING SPLICING” (REMIX THERAPEUTICS INC., priority 2021, published 2024).
